The record followed here is patent publication US5861393A, “Antithrombotic amidinophenylalanine and amidinopyridylalanine derivatives” (Pfizer Inc., priority 1993, dated 1999).

What all share (assay type): biochemical
For one assay, the target named is T1, bovine plasma plasmin (Bos taurus, UniProt P06868).
T1 construct: from tissue; host or cells: bovine plasma
In words: Chromogenic assay, inhibition of plasmin. To be noted: in vitro; substrate Chromozym PL; pH 8.0; 30 minutes at 30° C. On the procedure:
(§1) The inhibition of thrombin, trypsin, plasmin or factor Xa is measured in 96 well plate chromogenic assays. The percentage inhibition and IC50 are calculated from triplicate samples of an 8 concentration dose-response curve. From the substrate Km and IC50, the Ki for each inhibitor is calculated. All assays are carried out in a total incubation of 200 μl of 50 mM HEPES and 150 mM NaCl at pH 8.0, and all compound dilutions are preincubated with enzyme at room temperature for 15 minutes prior to addition of substrate. After 30 minutes incubation at 30° C., the O.D. is measured at […] in a 96 well plate reader. Thrombin activity is measured using bovine thrombin and S2238 (H-D-Phe-Pip-Arg-pNA), bovine pancreatic trypsin is assayed with S2222 (Benz-Isoleu-Glu-Gly-Arg-pNA), bovine plasma plasmin is assayed with Chromozym PL (Tosyl-Gly-Pro-Lys-pNA)and bovine factor Xa is assayed in 50 mM Tris,150mM NaCl,pH 7.5 buffer with S2222.

For assay [1], the target named is T2, bovine pancreatic trypsin (Bos taurus, UniProt P00760).
T2 construct: from tissue; host or cells: bovine pancreas
T2 sequence (P00760 24-246): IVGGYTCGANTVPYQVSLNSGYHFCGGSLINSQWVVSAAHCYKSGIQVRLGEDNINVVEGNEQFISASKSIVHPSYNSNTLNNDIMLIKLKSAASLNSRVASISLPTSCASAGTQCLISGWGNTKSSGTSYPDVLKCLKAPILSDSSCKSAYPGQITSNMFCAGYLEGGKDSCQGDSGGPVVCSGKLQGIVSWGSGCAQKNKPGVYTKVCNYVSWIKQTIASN
Put plainly: Chromogenic assay, inhibition of trypsin. To be noted: in vitro; substrate S2222; pH 8.0; 30 minutes at 30° C. On the procedure:
as §1

In another assay the target is bovine thrombin (Bos taurus, UniProt P00735). In words: Chromogenic assay, inhibition of thrombin. As to conditions: in vitro; substrate S2238; pH 8.0; 30 minutes at 30° C. On the procedure: as §1

Where a name gives a salt, the structure may show the parent alone.

T1 sequence (P06868 584-812 limits assumed): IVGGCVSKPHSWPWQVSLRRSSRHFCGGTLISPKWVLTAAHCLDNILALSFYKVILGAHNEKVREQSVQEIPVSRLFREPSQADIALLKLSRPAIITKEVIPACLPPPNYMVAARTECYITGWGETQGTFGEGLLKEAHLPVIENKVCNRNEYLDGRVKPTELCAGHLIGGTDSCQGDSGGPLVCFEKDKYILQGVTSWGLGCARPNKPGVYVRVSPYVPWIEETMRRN
T1 sequence (P06868 105-583 partner limits assumed): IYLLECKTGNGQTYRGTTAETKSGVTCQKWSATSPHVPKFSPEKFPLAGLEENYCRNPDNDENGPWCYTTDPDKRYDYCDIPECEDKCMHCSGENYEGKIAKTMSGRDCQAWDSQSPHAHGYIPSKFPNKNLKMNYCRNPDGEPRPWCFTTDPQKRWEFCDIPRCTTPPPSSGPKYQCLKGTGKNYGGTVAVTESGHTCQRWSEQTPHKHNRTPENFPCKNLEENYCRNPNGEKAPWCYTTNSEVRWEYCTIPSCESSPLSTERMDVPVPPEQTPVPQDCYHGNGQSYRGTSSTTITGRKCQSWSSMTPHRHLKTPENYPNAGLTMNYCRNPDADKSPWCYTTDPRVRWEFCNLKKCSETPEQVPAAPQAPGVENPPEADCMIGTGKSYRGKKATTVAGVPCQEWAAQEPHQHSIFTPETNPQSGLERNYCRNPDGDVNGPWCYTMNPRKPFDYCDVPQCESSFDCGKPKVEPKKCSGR

For `CC1=CCN(C(=O)[C@H](Cc2cccc(C(=N)N)c2)NS(=O)(=O)c2ccc3c(c2)CCN(C)C3)[C@@H](C(=O)O)C1` [Example 2, 4-Methyl-1-[N-(2-methyl-1,2,3,4-tetrahydroisoquinoline-6-sulphonyl)-3-amidino-(S)-phenylalanyl]-1,2,3,6-tetrahydropyridine-2(R)-carboxylic acid dihydrochloride], the inhibition constant Ki turned out to be 6100 nM on bovine plasma plasmin, 57 nM in assay [1] and 3.9 nM at bovine thrombin.

As to `CC1=CCN(C(=O)[C@H](Cc2cccc(C(=N)N)c2)NS(=O)(=O)c2ccc3c(c2)C(CC(=O)N(C)C)N(C)CC3)[C@@H](C(=O)O)C1` (stereo partly drawn) [Example 5, 1-{N-[1(R,S)-(N,N-Dimethylcarbamoylmethyl)-2-methyl-1,2,3,4-tetrahydroisoquinoline-7-sulphonyl]-3-amidino-(S)-phenylalanyl}-4-methyl-1 2,3,6-tetrahydropyridine-2(R-carboxylic acid dihydrochloride], the Ki on bovine plasma plasmin came to 6000 nM; in assay [1], 54 nM; at bovine thrombin, 2.2 nM.

Consider `CC1=CCN(C(=O)[C@H](Cc2cccc(C(=N)N)c2)NS(=O)(=O)c2ccc3c(c2)CCN(C(C)C)CC3)[C@@H](C(=O)O)C1` [Example 8, 4-Methyl-1-{N-[3-(2-propyl]-2,3,4,5-tetrahydro-1H-3-benzazepine-7-sulphonyl-3-amidino-(S)-phenylalanyl}-1,2,3,6-tetrahydropyridine-2(R)-carboxylic acid dihydrochloride], for which the Ki at bovine plasma plasmin was 1800 nM; in assay [1], 40 nM; on bovine thrombin, 6.4 nM.

`CC1=CCN(C(=O)[C@H](Cc2cccc(C(=N)N)c2)NS(=O)(=O)c2ccc3c(c2)CN(Cc2ccccc2)CC3)[C@@H](C(=O)O)C1` [Example 10, 1-[N-(2-Benzyl-1,2,3,4-tetrahydroisoquinoline-7-sulphonyl)-3-amidino-(S)-phenylalanyl]-4-methyl-1,2,3,6-tetrahydropyridine-2(R)-carboxylic acid dihydrochloride]: the Ki at bovine plasma plasmin was 180 nM; in assay [1] it was 48 nM; at bovine thrombin, 1 nM.

`C[C@@H]1CCN(C(=O)C(Cc2cccc(C(=N)N)c2)NS(=O)(=O)c2ccc3c(c2)CN(C)CC3)[C@@H](C(=O)O)C1` (stereo partly drawn) [Example 13, 4(R)-Methyl-1-[N-(2-methyl-1,2,3,4-tetrahydroisoquinoline-7-sulphonyl)-3-amidino-(R,S)-phenylalanyl]piperidine-2(R)-carboxylic acid dihydrochloride]: the inhibition constant Ki on bovine plasma plasmin came to 12000 nM; in assay [1] it was 49 nM; on bovine thrombin it was 4 nM.

Regarding `CC1=CCN(C(=O)[C@H](Cc2cccc(C(=N)N)c2)NS(=O)(=O)c2ccc3c(c2)CNCC3)C(C(=O)O)C1` (stereo partly drawn) [Example 15, 4-Methyl-1-[N-(1,2,3,4-tetrahydroisoquinoline-7-sulphonyl)-3-amidino-(S)-phenylalanvl]-1,2,3,6-tetrahydropyridine-2(R,S)-carboxylic acid dihydrochloride], the inhibition constant Ki on bovine plasma plasmin worked out at 14000 nM; in assay [1] it was 320 nM; at bovine thrombin, 78 nM.

The term Ki denotes the equilibrium dissociation constant of an inhibitor or competing ligand from its target. A higher Ki goes with a looser hold on the target.
